# Laboratory results reported in patent publication US20240041042A1, “1-(PYRIDYL)-5-AZINYLPYRAZOLE DERIVATIVES, AND THEIR USE FOR CONTROL OF UNDESIRED PLANT GROWTH” (Bayer Aktiengesellschaft, priority 2020, published 2024).
# Read-outs that look alike come from different tables or passages of the source.
# Columns and labels:
# Format in all cases: in vivo
# [1] = tested on: Alopecurus myosuroides (ALOMY); assay: Post-emergence herbicidal action against ALOMY; details: visual rating about 3 weeks after treatment vs untreated controls (100% = plants have died, 0% = like control plants)
# Outline: (§1)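 Values are percent visual activity (0% like control, 100% plants dead) after about 3 weeks in the greenhouse. Treatment: post-emergence spray at one-leaf stage, 600 l/ha spray volume, 0.5% additive, doses 320 g/ha or lower.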
# [2] = tested on: Matricaria inodora (MATIN); assay: Pre-emergence herbicidal action against MATIN; details: dosage 320 g/ha
# Outline: (§2)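 Pre-emergence soil-surface spray of compound, formulated as wettable powder or emulsion concentrate, in aqueous suspension or emulsion with 0.5% additive (600 l/ha; rate 320 g/ha or less). Activity rated visually after roughly 3 weeks in the greenhouse as a percentage of untreated controls, 0% meaning no difference.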
# Viola tricolor (VIOTR) [3] = assay: Post-emergence herbicidal action against VIOTR; details: 320 g/ha
# Outline: as §1
# [4] = tested on: Echinochloa crus-galli (ECHCG); assay: Pre-emergence herbicidal action against ECHCG; details: dosage 320 g/ha
# Outline: as §2
# [5] = tested on: Pharbitis purpurea (PHBPU); assay: Post-emergence herbicidal action against PHBPU; details: dosage 320 g/ha
# Outline: as §1
# [6] = tested on: Alopecurus myosuroides (ALOMY); assay: Pre-emergence herbicidal action against ALOMY; details: scored visually after about 3 weeks, 100% = plants have died
# Outline: as §2
# [7] = tested on: Digitaria sanguinalis (DIGSA); assay: Pre-emergence herbicidal action against DIGSA
# Outline: as §2
# Lolium rigidum (LOLRI) [8] = assay: Pre-emergence herbicidal action against LOLRI
# Outline: as §2
# [9] = tested on: Polygonum convolvulus (POLCO); assay: Post-emergence herbicidal action against POLCO
# Outline: as §1
# Lolium rigidum (LOLRI) [10] = assay: Post-emergence herbicidal action against LOLRI; details: dosage 320 g/ha
# Outline: as §1
# [11] = tested on: Digitaria sanguinalis (DIGSA); assay: Post-emergence herbicidal action against DIGSA; details: visual rating about 3 weeks after treatment
# Outline: as §1
# Setaria viridis (SETVI) [12] = assay: Pre-emergence herbicidal action against SETVI
# Outline: as §2
# Oryza sativa (ORYSA) [13] = details: crop plant compatibility
# Outline: (§3)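 Test crops were treated 2 to 3 weeks after sowing, once they reached one leaf, by spraying compound in water with 0.5% additive at 600 l/ha. Visual scoring compared them with untreated controls roughly 3 weeks on, and appendices a, b and c denote different doses.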
# Zea mays (ZEAMX) [14] = details: for Post-emergence action against ZEAMX in %: crop plant compatibility, effect vs untreated controls; for Post-emergence action against ZEAMX in % (crop plant compatibility): 20 g/ha, effect in comparison to untreated controls
# Outline: as §3
# [15] = tested on: Verconica persica (VERPE); assay: Pre-emergence herbicidal action against VERPE; details: dosage 320 g/ha
# Outline: as §2
# Oryza sativa (ORYSA) [16] = details: pre-emergence, 80 g/ha, crop plant compatibility, in comparison to untreated controls
# Outline: (§4)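 Scoring: visual, % of untreated control, about 3 weeks after a pre-emergence application to the soil surface. Application used WP or EC formulations diluted in water with 0.5% additive at 600 l/ha; dosage levels are marked by suffixes a, b and c.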
# Zea mays (ZEAMX) [17] = details: pre-emergence, 80 g/ha, crop plant compatibility, in comparison to untreated controls
# Outline: as §4
# [18] = tested on: Amaranthus retroflexus (AMARE); assay: Post-emergence herbicidal action against AMARE
# Outline: as §1
# [19] = tested on: Echinochloa crus-galli (ECHCG); assay: Post-emergence herbicidal action against ECHCG; details: dosage 320 g/ha
# Outline: as §1
# Avena fatua (AVEFA) [20] = assay: Post-emergence herbicidal action against AVEFA; details: visual rating about 3 weeks after treatment
# Outline: as §1
# [21] = tested on: Amaranthus retroflexus (AMARE); assay: Pre-emergence herbicidal action against AMARE; details: visual scoring after about 3 weeks vs untreated controls
# Outline: as §2
# Setaria viridis (SETVI) [22] = assay: Post-emergence herbicidal action against SETVI
# Outline: as §1
# Viola tricolor (VIOTR) [23] = assay: Pre-emergence herbicidal action against VIOTR
# Outline: as §2
# [24] = tested on: Verconica persica (VERPE); assay: Post-emergence herbicidal action against VERPE
# Outline: as §1
# [25] = tested on: Polygonum convolvulus (POLCO); assay: Pre-emergence herbicidal action against POLCO; details: dosage 320 g/ha
# Outline: as §2
# [26] = tested on: Pharbitis purpurea (PHBPU); assay: Pre-emergence herbicidal action against PHBPU; details: dosage 320 g/ha
# Outline: as §2
# Avena fatua (AVEFA) [27] = assay: Pre-emergence herbicidal action against AVEFA; details: 320 g/ha, visual scoring after about 3 weeks vs untreated controls
# Outline: as §2
# [28] = 80 g/ha, visual scoring after about 3 weeks vs untreated controls
# [29] = 80 g/ha, effect in comparison to untreated controls
# [30] = 80 g/ha, visual rating about 3 weeks after treatment vs untreated controls (100% = plants have died, 0% = like control plants)
# [31] = 20 g/ha, effect vs untreated controls
Post-emergence action against ORYSA in % (Oryza sativa (ORYSA) [13]; [29]),Post-emergence action against ZEAMX in % (Zea mays (ZEAMX) [14]; 80 g/ha),Pre-emergence action against ORYSA in % (Oryza sativa (ORYSA) [16]),Pre-emergence action against ZEAMX in % (Zea mays (ZEAMX) [17]),Post-emergence action against ORYSA in % (Oryza sativa (ORYSA) [13]; [31]),Post-emergence action against ZEAMX in % (crop plant compatibility) (Zea mays (ZEAMX) [14]),Compound,Post-emergence action against ALOMY in % ([1]; 80 g/ha),Pre-emergence action against MATIN in % [2],Pre-emergence action against ECHCG in % [4],Pre-emergence action against ALOMY ([6]; 320 g/ha),"Pre-emergence action against DIGSA in % [7, 28]",Pre-emergence action against DIGSA in % ([7]; dosage 320 g/ha),Pre-emergence action against LOLRI in % (Lolium rigidum (LOLRI) [8]; dosage 320 g/ha),Pre-emergence action against SETVI in % (Setaria viridis (SETVI) [12]; dosage 320 g/ha),Pre-emergence action against VERPE in % [15],"Post-emergence action against AMARE in % [18, 30]",Pre-emergence action against AMARE in % ([21]; 320 g/ha),"Pre-emergence action against VIOTR in % (Viola tricolor (VIOTR) [23]; 320 g/ha, Viola tricolor)",Pre-emergence action against ALOMY ([6]; 80 g/ha),Pre-emergence action against SETVI in % (Setaria viridis (SETVI) [12]; dosage 80 g/ha),further results
20%,0%,20%,10%,,,O=C(O)COc1nn(-c2nc(F)ccc2F)c(-c2ccc(F)nc2)c1C1CC1 [Example I-302],80%,90%,90%,90%,90%,100%,90%,100%,90%,80%,90%,90%,,,"Post-emergence action against ALOMY in % ([1]; 320 g/ha): 90%; Post-emergence action against VIOTR in % (Viola tricolor (VIOTR) [3]): 80%; Post-emergence action against PHBPU in % [5]: 80%; Pre-emergence action against LOLRI in % (Lolium rigidum (LOLRI) [8]; dosage 80 g/ha): 80%; Post-emergence action against POLCO in % ([9]; dosage 320 g/ha): 80%; Post-emergence action against LOLRI in % (Lolium rigidum (LOLRI) [10]): 80%; Post-emergence action against DIGSA in % ([11]; 320 g/ha): 80%; Post-emergence action against ZEAMX in % (Zea mays (ZEAMX) [14]; 320 g/ha): 10%; Post-emergence action against AMARE in % ([18]; 320 g/ha, visual rating about 3 weeks after treatment): 90%; Post-emergence action against ECHCG in % [19]: 80%; Post-emergence action against AVEFA in % (Avena fatua (AVEFA) [20]; 80 g/ha): 80%; Post-emergence action against AVEFA in % (Avena fatua (AVEFA) [20]; 320 g/ha): 80%; Post-emergence action against SETVI in % (Setaria viridis (SETVI) [22]; dosage 80 g/ha): 80%; Post-emergence action against SETVI in % (Setaria viridis (SETVI) [22]; dosage 320 g/ha): 90%; Post-emergence action against VERPE in % ([24]; 320 g/ha, VERPE): 80%"
0%,10%,10%,20%,0%,0%,O=C(COc1nn(-c2ccccn2)c(-c2ccc(F)nc2)c1Br)OCC1CCOC1 (stereo not drawn) [Example I-90],90%,90%,100%,100%,100%,100%,100%,100%,90%,80%,100%,90%,90%,90%,Post-emergence action against DIGSA in % ([11]; 80 g/ha): 90%; Pre-emergence action against AMARE in % ([21]; 80 g/ha): 100%; Post-emergence action against VERPE in % ([24]; dosage 80 g/ha): 90%; Pre-emergence action against POLCO in % [25]: 90%; Pre-emergence action against PHBPU in % [26]: 90%
0%,,0%,0%,0%,0%,O=C(O)COc1nn(-c2ccccn2)c(-c2ccnc(F)c2)c1Br [Example I-122],,80%,100%,100%,100%,100%,100%,100%,100%,90%,100%,100%,80%,100%,Post-emergence action against POLCO in % ([9]; dosage 80 g/ha): 90%; Pre-emergence action against AVEFA in % (Avena fatua (AVEFA) [27]): 90%; Pre-emergence action against AMARE in % ([21]; 80 g/ha): 80%; Pre-emergence action against VIOTR in % (Viola tricolor (VIOTR) [23]; dosage 80 g/ha): 100%; Post-emergence action against VERPE in % ([24]; dosage 80 g/ha): 80%; Pre-emergence action against POLCO in % [25]: 80%; Pre-emergence action against PHBPU in % [26]: 90%
